Consider 17 compounds from PubChem BioAssay (NCI).

Where “and” joins values, the source holds several entries; their conditions need not be identical. Equal values may be shown once.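 Where inhibition never reached the appropriate level, the endpoint shown equals the highest concentration tested. Otherwise, values were interpolated linearly from a five-concentration, 48-hour dose response in 96-well plates. Abbreviation: GI50, concentration required for 50% inhibition of growth. At the TGI there is no net growth.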

Assay in all cases: NCI tumour cell line growth inhibition, 48 h
Assay [1] relates to MDA-MB-435.
Assay [2] deals with SN12C renal.
For assay [3], the system named is TK-10 renal.
Assay [4] has as its system HL-60(TB) leukemia.
The subject of assay [5] is SK-MEL-5 melanoma.
The subject of assay [6] is NCI-H460 lung.
For assay [7], the system named is RXF 393 renal.
Assay [8] relates to SF-268 CNS.
Assay [9] relates to NCI-H226 lung.
Assay [10] deals with HT29 colon.

With `COc1ccc(/C=C/C(=O)C(C)(C)Br)cc1`, the TGI in assay [1] is 34.3 µM; in assay [2], 19.6 µM; in assay [3] it was 29.7 µM; in [4] it was 69.2 µM; in assay [5] it was 31.4 µM; in [6], 48 µM. In addition, the TGI in [7] came to 6.09 µM; in assay [8], 34.7 µM.
For the compound `CC12OC(C(=O)C13CCC3)C1C(=O)c3ccccc3C(=O)C12` (stereo not given), the GI50 in assay [1] was above 100 µM; in assay [2], 76.7 µM; in [3] it was 92.5 µM; in assay [9], 38.4 µM; in assay [4], 52 µM; in assay [6] it was above 100 µM. In addition, the GI50 in [10] and in assay [8] was above 100 µM throughout. Also, the TGI in assay [1], in assay [2], in [3], in [9], in [4] and in assay [6] was above 100 µM in each case. In addition, the TGI in assay [10] and in assay [8] was above 100 µM each time.
Take `c1cnc2[nH]cc(-c3csc(-c4cn(CCCN5CCCCC5)c5ccccc45)n3)c2c1`: the GI50 in [1] is 1.67 µM; in assay [2], 1.68 µM; in [3] it was 2.22 µM; in assay [4] it was 1.88 µM; in [10], 1.75 µM; in assay [8], 1.56 µM. The TGI in assay [1] came to 3.09 µM; in [2] it was 3.22 µM; in assay [3] it was 3.79 µM; in assay [4], 3.74 µM; in [10], 3.44 µM; in assay [8], 3.19 µM.
On to `COc1ccc(C2ONC3=NCCN32)cc1` (stereo not given), for which the GI50 in [1] was above 100 µM; in assay [2], 52.8 µM; in [3], above 100 µM; in [9], 61.4 µM; in [5], 53.3 µM; in [6], 50.8 µM. Besides, the GI50 was 68.8 µM in assay [10], above 100 µM in [7] and 70.5 µM in [8]. For the same compound, the TGI in [1], in [2], in assay [3], in [9], in assay [5] and in assay [6] was above 100 µM throughout. For the same compound, the TGI in [10], in [7] and in assay [8] was above 100 µM in each case.
For `O=c1[nH]c2cc(Cl)c(Cl)cc2n2cc3ccccc3c12`, the GI50 in [1] was 16.9 µM; in assay [2], 15.7 µM; in [3], 16.8 µM; in [9], 18.6 µM; in assay [5], 19.9 µM; in [6] it was 18.8 µM. The GI50 in assay [10] was 29 µM; in [7], 17.4 µM; in assay [8], 23.7 µM. Moreover, the TGI in assay [1] is 30.5 µM; in [2], 29.4 µM; in assay [3] it was 30.4 µM; in assay [9] it was 35.9 µM; in assay [5], 41.7 µM; in [6], 32.8 µM. For the same compound, the values for the TGI in assay [10], in [7] and in assay [8] were above 100 µM, 31.2 µM and 42.6 µM, respectively.
On to `CC(=O)Oc1ccc(C2(c3ccc(OC(C)=O)cc3)C(=O)Nc3ccccc32)cc1`, for which the GI50 in assay [1] was 30.6 µM and 29.8 µM; in assay [2], 0.202 µM and 0.283 µM; in [3], 3.14 µM and 17.6 µM; in assay [9], above 100 µM; in assay [4] it was 15.1 µM and 30.9 µM; in assay [5], 24.6 µM and 36.1 µM. The GI50 in assay [6] was 36.6 µM and 46.3 µM; in assay [10], 30.4 µM and 45.3 µM; in assay [8], 38.5 µM and 32.8 µM. For the same compound, the TGI was above 100 µM in assay [1]; above 68.3 µM in assay [2]; above 100 µM in assay [3]; above 100 µM in [9]; above 71.9 µM in assay [4]; above 100 µM in [5]. Besides, the TGI in assay [6], in assay [10] and in assay [8] was above 100 µM each time.
For the compound `C=C(CNCCc1ccc(O)cc1)[C@@H]1CC[C@]2(CO)CC[C@]3(C)[C@H](CC[C@@H]4[C@@]5(C)CCC(N)C(C)(C)[C@@H]5CC[C@]43C)[C@@H]12` (stereo not given in full), the GI50 in [1] is 1.52 µM; in [2] it was 1.56 µM; in assay [3], 1.73 µM; in [9] it was 1.83 µM; in [5] it was 1.69 µM; in assay [6], 1.51 µM. Also, the GI50 in [10] was 0.46 µM; in assay [7], 1.08 µM; in [8], 1.52 µM. The TGI in assay [1] turned out to be 2.85 µM; in assay [2] it was 3.02 µM; in [3] it was 3.22 µM; in [9], 3.78 µM; in [5], 3.09 µM; in [6], 3.07 µM. Moreover, the values for the TGI in [10], in [7] and in assay [8] were 1.81 µM, 2.36 µM and 3.03 µM, respectively.
With `NC(N)=N/N=C/c1c(-c2ccc(Cl)c([N+](=O)[O-])c2)nc2n1CCS2`, the GI50 is 9.63 µM in assay [1]; 2.29 µM in [2]; 4.24 µM in assay [9]; 2.34 µM in [4]; 15 µM in assay [5]; 11.6 µM in [6]. The figures for the GI50 in [10] and in assay [8] were 6.13 µM and 16.1 µM, respectively. The TGI in assay [1] is 22.2 µM; in assay [2], 9.04 µM; in [9] it was 24 µM; in assay [4], 6.27 µM; in assay [5] it was 36.7 µM; in [6] it was above 100 µM. Further, the TGI in assay [10] was 30.9 µM; in assay [8], 40 µM.
For `O=C(Nc1ccc(Cl)cc1)Nc1ccccc1CNc1nc(Nc2ccc(OCCN3CCCC3)cc2)ncc1Cl`, the GI50 in [1] is 0.935 µM; in [2] it was 0.913 µM; in assay [3] it was 0.982 µM; in assay [4], 1.05 µM; in [5], 0.845 µM; in assay [6], 0.936 µM. In addition, the GI50 in [10] is 1.19 µM; in assay [7], 0.898 µM; in [8], 1.29 µM. In addition, the TGI in assay [1] is 1.93 µM; in assay [2], 1.74 µM; in assay [3] it was 1.91 µM; in [4], 2.19 µM; in assay [5], 1.53 µM; in [6], 1.78 µM. The values for the TGI in assay [10], in assay [7] and in [8] were 3.28 µM, 1.76 µM and 4.04 µM, respectively.
For the compound `CCN(CC)CCOc1ccc(/C=C2\CC3C4CC=C5C[C@@H](OC(C)=O)CC[C@]5(C)C4CC[C@]3(C)C2=O)cc1OC` (stereo not given in full), the GI50 in assay [1] is 1.78 µM; in assay [2] it was 12.6 µM; in assay [3], 2.53 µM; in assay [9] it was 13.3 µM; in assay [10] it was 4.07 µM; in assay [7], 2.58 µM. Moreover, in assay [8], the GI50 was 4.14 µM. Besides, the TGI in [1] is 3.58 µM; in assay [2] it was 30.1 µM; in assay [3], 6.1 µM; in assay [9], 35.9 µM; in assay [10] it was above 100 µM; in assay [7], 7.77 µM. This compound also showed a TGI in [8] of 18.4 µM.
On to `COc1ccc(C(=O)C[C@]2(O)C(=O)Nc3c(Cl)ccc(Cl)c32)cc1`, for which the GI50 in assay [1] was 0.128 µM; in assay [2], 0.87 µM; in [3] it was above 29.4 µM; in assay [9], 3.02 µM; in [4] it was 0.343 µM; in assay [5], 0.573 µM. The GI50 was 0.389 µM in assay [6], 0.376 µM in [10] and 1.33 µM in [8]. For the same compound, the TGI was 0.396 µM in assay [1]; above 100 µM in assay [2]; above 100 µM in assay [3]; above 100 µM in assay [9]; 3.06 µM in [4]; 22.3 µM in assay [5]. Moreover, the TGI in assay [6] is above 53.5 µM; in [8] it was above 77.8 µM.
In the case of `Cc1cc(=O)oc2cc(OCCn3c(C)nn(-c4ccc(Cl)cc4)c3=O)ccc12`, the GI50 in [1] is 0.269 µM; in assay [2], 5.54 µM; in [3], 13.4 µM; in assay [5] it was 0.848 µM; in [6] it was 2.8 µM; in assay [10], 3.82 µM. Further, the results for the GI50 in [7] and in assay [8] were 2.76 µM and 13.6 µM, respectively. The TGI was 0.837 µM in [1]; above 100 µM in [2]; 88.4 µM in [3]; above 100 µM in assay [5]; above 100 µM in [6]; above 100 µM in assay [10]. The TGI is 30 µM in assay [7] and above 100 µM in assay [8].
Regarding `CCCCCCCCCCCCCCCCS(=O)(=O)c1ccc(NN)cc1`, the TGI in assay [1] was above 10 µM; in assay [2] it was above 10 µM; in assay [3] it was above 10 µM; in assay [4] it was 6.17 µM; in assay [5], above 10 µM; in [6], above 10 µM. Moreover, the TGI in [10], in assay [7] and in assay [8] was above 10 µM each time.
On to `O=c1oc2ccc(F)cc2c(=O)n1-c1ccc(Br)cc1F`, for which the GI50 is 0.623 µM in assay [1]; 0.376 µM in [2]; 4.22 µM in assay [3]; 1.08 µM in assay [9]; 0.267 µM in [5]; 0.574 µM in assay [6]. Moreover, the GI50 in [10] is 3.4 µM; in assay [7], 0.923 µM; in assay [8] it was 0.633 µM. The TGI was 6.64 µM in assay [1]; 7.6 µM in assay [2]; 18 µM in assay [3]; 4.87 µM in assay [9]; 0.737 µM in assay [5]; 23.7 µM in assay [6]. Also, the values for the TGI in assay [10], in assay [7] and in [8] were above 44.3 µM, 4.66 µM and 13.7 µM, respectively.
Take `COc1ccc2c(c1)nc1n2C(c2ccc(F)cc2)SC1` (stereo not given): the GI50 was 21.8 µM in assay [1]; 32.2 µM in assay [2]; 22.8 µM in assay [3]; 19.1 µM in assay [9]; 28.4 µM in assay [4]; 15.4 µM in assay [5]. Moreover, the values for the GI50 in assay [6], in assay [7] and in assay [8] were 16.1 µM, 82.9 µM and 33.8 µM, respectively. The TGI in assay [1] was 59.5 µM; in assay [2] it was above 100 µM; in [3] it was above 100 µM; in assay [9], 54.1 µM; in assay [4], above 100 µM; in [5] it was 28.7 µM. Besides, the TGI in [6] was 67.7 µM; in [7], above 100 µM; in [8] it was above 100 µM.
For the compound `CCC(=O)c1cc([N+](=O)[O-])c(Br)s1`, the GI50 in assay [1] was 4.77 µM; in assay [2] it was 8.3 µM; in assay [3], 13.8 µM; in [9] it was 18.7 µM; in [5] it was 16.5 µM; in assay [6], 6.17 µM. Moreover, the GI50 is 1.52 µM in [10], 1.88 µM in [7] and 4.39 µM in assay [8]. The TGI in assay [1] is 18.7 µM; in [2], 24.1 µM; in [3] it was 28.1 µM; in [9] it was 35.6 µM; in assay [5], 30.4 µM; in [6], 20.9 µM. The TGI in [10] came out at 3.29 µM; in assay [7] it was 3.31 µM; in assay [8], 14.6 µM.
Regarding `COC(=O)[C@H](Cc1ccccc1)NC(=O)c1csc([C@@H](C[C@H](C(C)C)N(C)C(=O)[C@@H](NC(=O)[C@H]2CCCN2C)C2CC2)OC(C)=O)n1`, the GI50 is 0.027 µM in assay [1]; 0.548 µM in [2]; 4.18 µM in assay [3]; 3.93 µM in [9]; 0.204 µM in assay [4]; 0.671 µM in assay [5]. For the same compound, the figures for the GI50 in assay [6], in [10] and in assay [8] were 0.397 µM, 0.14 µM and 1.05 µM, respectively. Also, the TGI is 0.191 µM in assay [1]; above 33.3 µM in assay [2]; above 33.3 µM in [3]; above 33.3 µM in assay [9]; 1.9 µM in assay [4]; 8.99 µM in [5]. Further, the TGI in [6], in assay [10] and in [8] was above 33.3 µM in each case.
